Legend:
[1] = test system: α-SMA, TAGLN, CNN1, JAG1; assay: Immunoblotting of myofibroblast/fibrotic markers in RDEB fibroblasts; format: cell-based, human; conditions: RDEB-FBs, 24 h, absence and presence of TGF-β1
Source text: Whole-cell lysates were obtained in radioimmunoprecipitation assay (RIPA) buffer (Sigma-Aldrich) supplemented with phosphatase- and protease inhibitors (Merck). Different amounts of protein lysates were run under reducing conditions by using 4-12% gradient precast gels (Thermo Fisher Scientific) or hand-casting polyacrylamide gels (4-8%), depending on the protein to be assayed. Amersham™ Protran® Premium nitrocellulose membranes (pore size 0.2 μm) (Merck) were immunoblotted with primary antibodies indicated in Table 3 and incubated with horseradish peroxidase-linked secondary antibodies.
Detection was performed using Cytiva ECL™ Prime Western Blotting System (Merck) or SuperSignal West Femto (Thermo Fisher Scientific), depending on the protein to be assayed. Antibody against Notch1 (all forms; clone bTAN20) was obtained from the Developmental Studies Hybridoma Bank (DSHB) at the University of Iowa (DSHB, Iowa City, IA, USA). GAPDH (clone 14C10), Jagged1 (clone 28H8) and NOTCH1 intracellular domain (clone D3B8) were obtained from Cell Signaling (Cell Signaling Technology Inc., Beverly, MA, USA). Antibodies against TAGLN (clone #859112) and CNN1 (clone #836701) were from R&D Systems (R&D Systems, Inc. Minneapolis, MN, USA). Antibody against α-SMA (clone 1A4) was purchased from Sigma-Aldrich. Antibody against lamin B1 (LMNB1) was from Abcam (Cambridge, UK). […]

[2] = test system: α-SMA, CNN1, TAGLN, JAG1, HES1, POSTN, Pri-miR-143/145 mRNA; assay: Real-time PCR of contractile/fibrotic markers in RDEB fibroblasts; format: cell-based, human; conditions: RDEB-FBs
Source text: Total was extracted by TRIzol (Thermo Fisher Scientific) by monolayer fibroblast cultures, following manufacturer's instructions. RNA was reverse transcribed and amplified by using Power SYBR Green RNA-to-Ct 1-Step Kit (Thermo Fisher Scientific) on QuantStudio™ 7 Pro Real-Time PCR System (Thermo Fisher Scientific). Primer pairs used in this study are listed in Table 2: ACTA2, actin alpha 2, smooth muscle; CNN1, calponin; COL1A1, collagen type I alpha 1 chain; GAPDH, glyceraldehyde-3-phosphate dehydrogenase; HES1, hes family bHLH transcription factor 1; JAG1, jagged canonical Notch ligand 1; NOTCH1, notch receptor 1; POSTN, periostin; TAGLN, transgelin.
Relative mRNA expression levels were measured by the 2−ΔΔCT method. Hypoxanthine phosphoribosyltransferase 1 (HPRT1) was used as housekeeping gene to normalize mRNA expression levels.

## CCC[C@H](N[C@H]1CCc2cc(F)cc(F)c2C1)C(=O)Nc1cn(C(C)(C)CNCC(C)(C)C)cn1 [PF-03084014, (S)-2-((S)-5,7-difluoro-1,2,3,4-tetrahydronaphthalen-3-ylamino)-N-(1-(2-methyl-1-(neopentylamino)propan-2-yl)-1H-imidazol-4-yl)pentanamide]
[1]
  protein levels of contractile and fibrotic markers (immunoblotting): down-regulation of the prototypical contractile and fibrotic markers, including JAG1
[2]
  mRNA levels of HES1, periostin and Pri-miR-143/145: context-dependent downregulation
[2]; basal conditions and presence of TGF-β1
  mRNA levels of contractile/fibrotic markers (real-time PCR): down-regulation of a selection of contractile/fibrotic markers, including α-SMA, CNN1, TAGLN and JAG1

Reference: US20260060960A1, “GAMMA-SECRETASE INHIBITORS FOR USE IN THE TREATMENT OF INHERITED EPIDERMOLYSIS BULLOSA” (OSPEDALE PEDIATRICO BAMBINO GESU', priority 2022, published 2026)
